In US20100184679A1, “USE OF A COMBINATION OF CART PEPTIDES AS A THERAPEUTIC AGENT” (priority 2007, published 2010):
Where no end group is shown, it is not given here.

How the values were obtained:
[1] = tested on: HIV-1IIIB; assay: HIV-1 antiviral assay in CEM-SS cells (MTS readout)
[2] = tested on: HCMV strain AD169; assay: HCMV plaque formation assay in MRC-5 cells; assay type: cell-based; conditions: for inhibition of HCMV plaque formation as compared to the virus control experiment: 10 micrograms per ml, 7-10 days
Excerpt: Ganciclovir was used as positive control.

[3] = tested on: Primary Human endothelial cells (HUVEC); assay: Endothelial cell migration assay; assay type: cell-based; conditions: 10 micrograms per ml, 22 hours
Method: Thereafter, designated concentration of testing peptides—10 micrograms per ml—was added in duplicate wells.

[4] = tested on: Human A549 cells; assay: Apoptosis induction assay (Annexin-5); assay type: cell-based; conditions: 10 micrograms per ml, 24 hours
Method: Human A549 cells (carcinomic human alveolar basal epithelial cells) were utilized in the experiments employing the Annexin-5 apoptosis assay. […] Test peptides—10 micrograms per ml—were exposed for 24 hours to the A549 cells before they were analyzed for signs of apoptosis.

[5] = tested on: murine spleen cells; assay: Th1/Th2 cytokine profiling assay (Ovalbumin-restimulated spleen cells, CBA Kit); assay type: cell-based, Balb/c mice; conditions: 10 micrograms per ml, Ovalbumin restimulation, 72 hours
Excerpt: The Balb/c mice (originated in 1923, it is a popular strain and is used in many different research disciplines. Also classified as an inbred from the production of 20 or more successive brother-sister matings, the Balb/c mouse is albino and small in size) were immunized on Days 1, 15, and 29 with Ovalbumin (Ovalbumin is the main protein found in egg white, commonly used to stimulate an immunological reaction in test animals) in PBS (5 micrograms/injection). On day 50, spleens of the mice were harvested (3 weeks after last boost with Ovalbumin), Cells were cultured (2×10^5/well in triplicate) and incubated with culture medium or test peptides—10 micrograms per ml—for 30 min. Thereafter, additional Ovalbumin was added to the cells at 10 micrograms/ml for in vitro restimulation of the cells. 72 hours later, cell supernatants were harvested and assayed using the Becton Dickinson Mouse Th1/Th2 Cytokine CBA Kit. This kit can be used to measure Interleukin-2 (IL-2), Interleukin-4 (IL-4), Interleukin-5 (IL-5), Interferon-γ (IFN-γ), and Tumor Necrosis Factor-α (TNF-α) protein levels in a single sample. The kit performance has been optimized for analysis of physiologically relevant concentrations (pg/ml levels) of specific cytokine proteins in tissue culture supernatants and serum samples.

[6] = tested on: hepatitis B virus (HBV) ayw strain; assay: HBV assay in HepG2-2.2.15 cells (TaqMan PCR of secreted HBV DNA); assay type: cell-based; conditions: 10 micrograms per ml, six days, HBV DNA in supernatant
[7] = tested on: HUVEC; assay: Endothelial tube formation assay; assay type: cell-based, human; conditions: 10 micrograms per ml, 20 hours
Excerpt: Positive control was vehicle only.

| Compound | antiviral activity of positive control compounds (HIV-1) [1] | inhibition of the migration of human endothelial cells [3] [%] | induction of apoptosis on human lung cells [4] | change of the production of IFN-gamma [5] | change of the production of IL-5 [5] | production of TNF-alpha, induced by [5] [%] | inhibition of HCMV plaque formation as compared to the virus control experiment [2] [%] | inhibition of HBV replication as compared to the virus control infection [6] [%] | inhibition of the tube formation of human endothelial cells [7] [%] | further results |
| --- | --- | --- | --- | --- | --- | --- | --- | --- | --- | --- |
| Cc1cn([C@H]2C[C@H](N=[N+]=[N-])[C@@H](CO)O2)c(=O)[nH]c1=O [AZT] | expected levels of antiviral activity | – | – | – | – | – | – | – | – | – |
| Nc1nc(O)c2ncn(COC(CO)CO)c2n1 [Ganciclovir, reference compound] | – | – | – | – | – | – | – | – | – | antiviral activity of positive control compound (HCMV) ([2]; positive control): expected levels of antiviral activity |
| CC(C)(C)NC(=O)[C@@H]1CN(Cc2cccnc2)CCN1C[C@@H](O)C[C@@H](Cc1ccccc1)C(=O)N[C@H]1c2ccccc2C[C@H]1O [indinavir] | expected levels of antiviral activity | – | – | – | – | – | – | – | – | – |
| Tyr-Gly-Gln-Val-Pro-Met-Cys-Asp-Ala-Gly-Glu-Gln-Cys-Ala-Val-OH (YGQVPMCDAGEQCAV-OH; cysteine pairing not given here) [Peptide 1] | – | 15 | did not show any significant induction | did not significantly change | did not significantly change | 95.0 | 0.7 | 33.6 | 16 | production of IL-2, induced by [5]: 147.7%; production of IL-4, induced by [5]: 545.4% |
| Val-Pro-Ile-Tyr-Glu-Lys-Lys-Tyr-Gly-Gln-Val-Pro-Met-Cys-Asp-Ala-Gly-Glu-Gln-Cys-Ala-Val-Arg-Lys-Gly-Ala-Arg-Ile-Gly-Lys-Leu-Cys-Asp-Cys-Pro-Arg-Gly-Thr-Ser-Cys-Asn-Ser-Phe-Leu-Leu-Lys-Cys-Leu-OH (VPIYEKKYGQVPMCDAGEQCAVRKGARIGKLCDCPRGTSCNSFLLKCL-OH; cysteine pairing not given here) [Peptide 2] | – | 22 | 17.8% | did not significantly change | did not significantly change | 27.5 | 6.6 | 45.0 | 12 | production of IL-2, decreased by [5]: 61.5%; production of IL-4, decreased by [5]: 100% |
